Values quoted from earlier work, collected in patent US20240342302A1, “DEGRADER-ANTIBODY CONJUGATES AND METHODS OF USING SAME” (Angiex, Inc., priority 2021, published 2024).

Columns and labels:
[1] = patients treated with CA4P

CN(C)CC#Cc1ccc(OCCCc2sc(N3CCc4cccc(C(=O)Nc5nc6ccccc6s5)c4C3)nc2C(=O)O)c(F)c1 [A115463]
toxicity in the clinic: on-target and dose-limiting thrombocytopenia

CC1(C)CCC(c2ccc(Cl)cc2)=C(CN2CCN(c3ccc(C(=O)NS(=O)(=O)c4ccc(N[C@H](CCN5CCOCC5)CSc5ccccc5)c(S(=O)(=O)C(F)(F)F)c4)cc3)CC2)C1 [ABT 263]
toxicity in the clinic: on-target and dose-limiting thrombocytopenia

COc1ccc(/C=C\c2cc(OC)c(OC)c(OC)c2)cc1OP(=O)(O)O [CA4P]
cardiovascular adverse events [1]: seven patients have experienced heart attacks
